What was measured:
[1] = molecular target: Histone deacetylase 1/Nuclear receptor corepressor 2 (Homo sapiens, UniProt Q13547); test: Inhibition of recombinant human HDAC1/NCOR2 using Boc-L-Lys(epsilon-acetyl)-AMC as substrate by two-step fluorogenic assay; type: protein-complex assay
[2] = molecular target: Histone deacetylase 4 (Homo sapiens, UniProt P56524)
[3] = molecular target: Histone deacetylase 3/Nuclear receptor corepressor 2 (HDAC3/NCoR2) (Homo sapiens, UniProt O15379); type: protein-complex assay
[4] = molecular target: Histone deacetylase 9 (Homo sapiens, UniProt Q9UKV0)
Chain of Histone deacetylase 9 (Q9UKV0 whole entry): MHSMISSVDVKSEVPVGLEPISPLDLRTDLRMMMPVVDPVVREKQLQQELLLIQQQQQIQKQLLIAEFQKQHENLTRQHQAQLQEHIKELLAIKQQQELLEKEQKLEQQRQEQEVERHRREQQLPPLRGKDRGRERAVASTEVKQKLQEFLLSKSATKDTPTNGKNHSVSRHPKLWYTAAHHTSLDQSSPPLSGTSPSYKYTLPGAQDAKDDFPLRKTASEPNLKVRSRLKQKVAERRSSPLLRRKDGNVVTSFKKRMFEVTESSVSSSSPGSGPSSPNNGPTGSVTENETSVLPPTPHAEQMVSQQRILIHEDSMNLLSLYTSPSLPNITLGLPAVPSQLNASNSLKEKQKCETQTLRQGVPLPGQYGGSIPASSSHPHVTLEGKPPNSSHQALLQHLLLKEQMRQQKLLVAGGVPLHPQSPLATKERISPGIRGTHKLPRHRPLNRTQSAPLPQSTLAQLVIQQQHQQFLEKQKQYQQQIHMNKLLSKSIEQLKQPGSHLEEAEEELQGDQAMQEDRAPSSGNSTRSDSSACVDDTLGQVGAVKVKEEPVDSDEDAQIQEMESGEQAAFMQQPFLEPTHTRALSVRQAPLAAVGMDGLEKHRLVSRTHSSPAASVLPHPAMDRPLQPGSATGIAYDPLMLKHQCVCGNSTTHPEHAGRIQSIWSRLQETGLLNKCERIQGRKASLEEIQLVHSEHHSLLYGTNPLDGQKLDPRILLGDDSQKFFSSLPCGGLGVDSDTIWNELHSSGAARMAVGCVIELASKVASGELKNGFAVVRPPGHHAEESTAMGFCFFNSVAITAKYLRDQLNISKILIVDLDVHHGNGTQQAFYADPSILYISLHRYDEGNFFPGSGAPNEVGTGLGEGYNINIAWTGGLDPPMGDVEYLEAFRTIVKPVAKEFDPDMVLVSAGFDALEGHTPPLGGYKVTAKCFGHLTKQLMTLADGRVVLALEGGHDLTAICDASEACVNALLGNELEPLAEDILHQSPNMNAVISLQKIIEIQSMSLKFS

[5] = molecular target: T1, Protein deacetylase HDAC6 (Homo sapiens, UniProt Q9UBN7); test: Inhibition of recombinant human HDAC6 using Boc-L-Lys(epsilon-acetyl)-AMC as substrate by two-step fluorogenic assay
T1 sequence (Q9UBN7 whole entry): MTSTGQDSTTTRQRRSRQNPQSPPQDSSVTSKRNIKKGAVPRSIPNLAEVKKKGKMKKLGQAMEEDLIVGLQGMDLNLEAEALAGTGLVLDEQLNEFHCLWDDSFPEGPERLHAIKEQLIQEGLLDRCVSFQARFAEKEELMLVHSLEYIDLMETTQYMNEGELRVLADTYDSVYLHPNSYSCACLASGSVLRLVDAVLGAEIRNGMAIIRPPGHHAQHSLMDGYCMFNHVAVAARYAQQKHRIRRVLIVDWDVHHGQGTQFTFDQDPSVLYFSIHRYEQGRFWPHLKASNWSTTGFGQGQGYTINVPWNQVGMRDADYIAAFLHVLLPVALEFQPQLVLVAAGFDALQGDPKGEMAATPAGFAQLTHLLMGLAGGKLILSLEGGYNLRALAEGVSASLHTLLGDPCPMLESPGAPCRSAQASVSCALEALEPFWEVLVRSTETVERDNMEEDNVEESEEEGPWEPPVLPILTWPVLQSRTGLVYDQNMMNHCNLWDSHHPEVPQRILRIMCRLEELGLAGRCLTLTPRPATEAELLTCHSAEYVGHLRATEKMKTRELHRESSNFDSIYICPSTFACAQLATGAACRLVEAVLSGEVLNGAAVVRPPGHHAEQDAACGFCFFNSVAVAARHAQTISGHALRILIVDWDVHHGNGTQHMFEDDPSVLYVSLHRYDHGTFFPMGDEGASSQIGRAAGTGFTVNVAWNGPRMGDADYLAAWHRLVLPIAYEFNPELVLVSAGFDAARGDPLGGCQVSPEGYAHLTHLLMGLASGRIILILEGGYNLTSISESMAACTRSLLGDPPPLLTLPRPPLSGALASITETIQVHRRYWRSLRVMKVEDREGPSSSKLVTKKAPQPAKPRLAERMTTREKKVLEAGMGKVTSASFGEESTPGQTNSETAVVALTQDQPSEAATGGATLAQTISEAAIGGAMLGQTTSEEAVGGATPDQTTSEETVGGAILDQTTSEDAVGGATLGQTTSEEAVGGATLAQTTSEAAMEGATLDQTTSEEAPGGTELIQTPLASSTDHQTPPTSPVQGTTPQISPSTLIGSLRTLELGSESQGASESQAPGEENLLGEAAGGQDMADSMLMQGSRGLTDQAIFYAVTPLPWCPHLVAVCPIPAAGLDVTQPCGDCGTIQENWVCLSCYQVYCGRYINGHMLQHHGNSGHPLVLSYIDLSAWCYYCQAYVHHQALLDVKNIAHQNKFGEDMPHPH

[6] = molecular target: T2, Histone deacetylase 7 (Homo sapiens, UniProt Q8WUI4)
T2 sequence (Q8WUI4 whole entry): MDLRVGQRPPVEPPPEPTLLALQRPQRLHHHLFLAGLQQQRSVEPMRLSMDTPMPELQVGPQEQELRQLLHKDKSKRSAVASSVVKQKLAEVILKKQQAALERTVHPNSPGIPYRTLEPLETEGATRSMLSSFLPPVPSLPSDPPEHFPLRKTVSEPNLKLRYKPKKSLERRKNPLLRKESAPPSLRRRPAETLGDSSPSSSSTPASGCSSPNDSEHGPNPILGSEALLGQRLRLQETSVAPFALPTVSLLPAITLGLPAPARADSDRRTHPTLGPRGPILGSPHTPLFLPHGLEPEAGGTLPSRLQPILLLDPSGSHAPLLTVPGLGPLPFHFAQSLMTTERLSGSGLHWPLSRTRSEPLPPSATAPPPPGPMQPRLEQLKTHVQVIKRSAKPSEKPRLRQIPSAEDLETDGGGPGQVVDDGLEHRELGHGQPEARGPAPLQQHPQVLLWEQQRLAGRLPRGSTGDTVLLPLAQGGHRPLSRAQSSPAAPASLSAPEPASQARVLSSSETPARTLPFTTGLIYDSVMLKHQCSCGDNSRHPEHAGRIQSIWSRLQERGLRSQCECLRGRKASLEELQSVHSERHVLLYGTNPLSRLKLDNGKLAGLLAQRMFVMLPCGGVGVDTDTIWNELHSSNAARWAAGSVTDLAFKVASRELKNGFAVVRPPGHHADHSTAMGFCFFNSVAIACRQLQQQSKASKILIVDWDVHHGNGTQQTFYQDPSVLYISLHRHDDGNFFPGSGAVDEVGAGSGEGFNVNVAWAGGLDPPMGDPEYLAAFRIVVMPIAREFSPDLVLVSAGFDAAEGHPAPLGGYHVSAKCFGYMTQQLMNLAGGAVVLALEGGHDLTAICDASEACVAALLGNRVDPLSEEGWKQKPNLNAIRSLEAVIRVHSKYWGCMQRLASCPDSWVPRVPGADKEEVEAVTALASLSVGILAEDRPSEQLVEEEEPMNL
Description: Inhibition of recombinant human HDAC7 using Boc-L-Lys(epsilon-trifluoroacetyl)-AMC as substrate by two-step fluorogenic assay

[7] = molecular target: T3, Histone deacetylase 8 (Homo sapiens, UniProt Q9BY41)
T3 sequence (Q9BY41 whole entry): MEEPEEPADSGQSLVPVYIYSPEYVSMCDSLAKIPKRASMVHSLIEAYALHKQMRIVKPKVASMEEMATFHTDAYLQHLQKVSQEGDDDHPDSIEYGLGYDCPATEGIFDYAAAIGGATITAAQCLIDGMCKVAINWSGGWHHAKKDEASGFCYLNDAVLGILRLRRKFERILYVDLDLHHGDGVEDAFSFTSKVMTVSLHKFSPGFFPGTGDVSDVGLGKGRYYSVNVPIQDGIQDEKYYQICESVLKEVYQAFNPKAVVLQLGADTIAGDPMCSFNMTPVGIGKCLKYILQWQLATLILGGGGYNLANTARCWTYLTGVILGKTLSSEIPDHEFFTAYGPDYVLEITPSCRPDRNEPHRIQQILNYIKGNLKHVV

[8] = molecular target: Histone deacetylase 2/Nuclear receptor corepressor 2 (Homo sapiens, UniProt Q92769); test: Inhibition of recombinant human HDAC2/NCOR2 using Boc-L-Lys(epsilon-acetyl)-AMC as substrate by two-step fluorogenic assay; type: protein-complex assay

Chain of Histone deacetylase 1/Nuclear receptor corepressor 2 (Q13547 whole entry): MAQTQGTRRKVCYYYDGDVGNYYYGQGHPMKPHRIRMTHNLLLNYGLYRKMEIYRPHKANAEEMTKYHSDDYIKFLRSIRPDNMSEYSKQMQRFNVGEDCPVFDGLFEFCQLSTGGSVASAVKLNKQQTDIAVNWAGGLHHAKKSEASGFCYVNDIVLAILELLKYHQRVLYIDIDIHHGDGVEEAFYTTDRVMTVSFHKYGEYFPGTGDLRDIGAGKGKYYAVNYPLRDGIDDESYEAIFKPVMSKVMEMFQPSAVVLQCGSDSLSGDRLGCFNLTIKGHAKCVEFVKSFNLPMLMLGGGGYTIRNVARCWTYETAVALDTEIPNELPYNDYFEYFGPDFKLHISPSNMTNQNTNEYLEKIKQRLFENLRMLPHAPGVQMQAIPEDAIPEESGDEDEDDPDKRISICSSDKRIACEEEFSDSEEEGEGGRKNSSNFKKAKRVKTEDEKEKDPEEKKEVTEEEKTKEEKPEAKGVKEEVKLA
Chain of Histone deacetylase 1/Nuclear receptor corepressor 2 (Q9Y618 whole entry, further chain): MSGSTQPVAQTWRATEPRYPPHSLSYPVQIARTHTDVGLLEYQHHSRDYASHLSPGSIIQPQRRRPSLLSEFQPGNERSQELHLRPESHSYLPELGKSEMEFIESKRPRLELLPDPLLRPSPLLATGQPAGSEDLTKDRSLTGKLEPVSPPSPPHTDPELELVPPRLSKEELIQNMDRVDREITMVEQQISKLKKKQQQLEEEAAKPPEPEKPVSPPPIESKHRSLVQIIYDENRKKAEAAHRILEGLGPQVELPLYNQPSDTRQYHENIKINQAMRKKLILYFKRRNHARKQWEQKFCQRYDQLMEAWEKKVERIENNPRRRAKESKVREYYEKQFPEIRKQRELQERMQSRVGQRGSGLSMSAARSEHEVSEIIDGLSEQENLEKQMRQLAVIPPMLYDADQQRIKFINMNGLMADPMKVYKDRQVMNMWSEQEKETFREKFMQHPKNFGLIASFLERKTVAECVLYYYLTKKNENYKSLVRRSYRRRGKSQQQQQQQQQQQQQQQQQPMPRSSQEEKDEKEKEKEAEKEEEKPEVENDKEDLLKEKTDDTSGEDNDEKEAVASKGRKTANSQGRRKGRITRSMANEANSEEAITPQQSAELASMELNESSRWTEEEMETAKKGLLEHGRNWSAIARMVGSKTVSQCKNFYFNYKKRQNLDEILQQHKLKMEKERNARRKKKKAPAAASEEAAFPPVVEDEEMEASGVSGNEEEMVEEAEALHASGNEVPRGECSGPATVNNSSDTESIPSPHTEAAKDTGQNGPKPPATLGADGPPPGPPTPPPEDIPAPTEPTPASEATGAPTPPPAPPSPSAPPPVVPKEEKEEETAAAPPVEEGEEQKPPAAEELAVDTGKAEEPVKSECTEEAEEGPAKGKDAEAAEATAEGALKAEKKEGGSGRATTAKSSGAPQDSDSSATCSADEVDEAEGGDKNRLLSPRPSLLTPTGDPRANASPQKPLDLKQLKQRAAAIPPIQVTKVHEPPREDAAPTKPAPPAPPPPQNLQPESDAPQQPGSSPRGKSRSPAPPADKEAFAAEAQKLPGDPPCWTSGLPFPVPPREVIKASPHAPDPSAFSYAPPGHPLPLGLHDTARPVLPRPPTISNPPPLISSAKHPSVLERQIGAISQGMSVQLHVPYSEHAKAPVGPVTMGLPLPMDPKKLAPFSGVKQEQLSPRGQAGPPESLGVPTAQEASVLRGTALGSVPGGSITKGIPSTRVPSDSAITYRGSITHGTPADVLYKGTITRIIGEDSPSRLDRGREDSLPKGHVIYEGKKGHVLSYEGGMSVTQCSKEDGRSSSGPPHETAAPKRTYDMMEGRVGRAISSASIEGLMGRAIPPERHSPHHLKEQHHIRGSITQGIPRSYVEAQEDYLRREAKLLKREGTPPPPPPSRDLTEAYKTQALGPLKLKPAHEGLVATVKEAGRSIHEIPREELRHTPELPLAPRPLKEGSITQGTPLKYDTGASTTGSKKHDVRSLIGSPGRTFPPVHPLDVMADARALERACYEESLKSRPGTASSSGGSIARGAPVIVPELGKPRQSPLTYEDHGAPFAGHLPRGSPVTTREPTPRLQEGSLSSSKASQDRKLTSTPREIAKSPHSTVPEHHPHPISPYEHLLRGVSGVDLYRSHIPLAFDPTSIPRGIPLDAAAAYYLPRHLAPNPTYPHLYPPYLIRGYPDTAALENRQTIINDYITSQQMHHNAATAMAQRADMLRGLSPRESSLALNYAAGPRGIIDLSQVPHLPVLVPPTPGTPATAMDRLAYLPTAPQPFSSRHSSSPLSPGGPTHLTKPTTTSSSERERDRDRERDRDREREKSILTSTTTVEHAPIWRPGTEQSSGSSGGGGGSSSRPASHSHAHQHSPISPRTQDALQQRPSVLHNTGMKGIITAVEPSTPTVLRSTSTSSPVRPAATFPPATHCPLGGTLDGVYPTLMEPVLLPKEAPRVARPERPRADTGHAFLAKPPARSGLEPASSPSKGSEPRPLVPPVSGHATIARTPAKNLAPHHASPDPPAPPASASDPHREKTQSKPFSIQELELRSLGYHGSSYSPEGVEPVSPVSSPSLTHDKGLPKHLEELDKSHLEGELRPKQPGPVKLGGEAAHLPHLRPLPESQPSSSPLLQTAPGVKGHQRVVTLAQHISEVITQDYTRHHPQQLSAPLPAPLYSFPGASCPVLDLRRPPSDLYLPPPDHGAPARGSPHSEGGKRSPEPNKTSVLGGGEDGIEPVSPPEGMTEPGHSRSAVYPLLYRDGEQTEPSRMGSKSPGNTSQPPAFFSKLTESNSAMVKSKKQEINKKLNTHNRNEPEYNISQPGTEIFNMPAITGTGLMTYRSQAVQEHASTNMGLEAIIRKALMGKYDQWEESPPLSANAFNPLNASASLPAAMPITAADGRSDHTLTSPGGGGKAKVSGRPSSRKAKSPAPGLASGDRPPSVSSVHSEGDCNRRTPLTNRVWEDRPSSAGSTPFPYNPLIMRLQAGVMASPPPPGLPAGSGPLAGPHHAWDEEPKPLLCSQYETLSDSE
Chain of Histone deacetylase 4 (P56524 whole entry): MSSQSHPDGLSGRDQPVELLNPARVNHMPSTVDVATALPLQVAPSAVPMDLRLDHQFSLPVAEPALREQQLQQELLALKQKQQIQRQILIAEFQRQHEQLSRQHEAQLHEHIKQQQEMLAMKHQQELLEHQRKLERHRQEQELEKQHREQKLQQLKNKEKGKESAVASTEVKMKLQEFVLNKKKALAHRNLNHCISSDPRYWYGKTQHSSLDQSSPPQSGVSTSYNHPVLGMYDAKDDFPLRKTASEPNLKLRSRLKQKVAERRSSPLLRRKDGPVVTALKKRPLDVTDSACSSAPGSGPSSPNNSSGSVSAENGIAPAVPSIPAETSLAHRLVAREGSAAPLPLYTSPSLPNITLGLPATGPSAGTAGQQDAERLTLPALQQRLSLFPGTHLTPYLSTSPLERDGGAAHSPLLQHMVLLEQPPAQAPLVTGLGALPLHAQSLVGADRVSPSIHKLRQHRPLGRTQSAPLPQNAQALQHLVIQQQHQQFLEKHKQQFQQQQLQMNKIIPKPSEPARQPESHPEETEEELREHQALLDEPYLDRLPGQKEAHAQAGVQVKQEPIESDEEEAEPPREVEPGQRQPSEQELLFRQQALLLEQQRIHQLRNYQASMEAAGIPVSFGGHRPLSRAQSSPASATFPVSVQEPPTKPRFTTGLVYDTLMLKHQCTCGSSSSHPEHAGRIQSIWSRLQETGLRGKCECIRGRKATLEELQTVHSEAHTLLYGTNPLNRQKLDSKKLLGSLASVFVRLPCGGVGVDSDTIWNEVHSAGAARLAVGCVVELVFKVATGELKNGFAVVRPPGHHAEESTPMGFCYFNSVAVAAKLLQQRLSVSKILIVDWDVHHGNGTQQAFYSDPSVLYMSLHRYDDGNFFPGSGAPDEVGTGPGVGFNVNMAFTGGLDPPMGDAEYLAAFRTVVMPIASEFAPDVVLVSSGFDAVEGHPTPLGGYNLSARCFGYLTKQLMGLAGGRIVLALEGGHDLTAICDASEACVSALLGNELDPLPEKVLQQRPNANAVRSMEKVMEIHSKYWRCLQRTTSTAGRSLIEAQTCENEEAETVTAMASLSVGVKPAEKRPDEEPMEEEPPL

SMILES	IC50 [1]	IC50 [2]	IC50 [3]	IC50 [4]	IC50 [5]	IC50 [6]	IC50 [7]	IC50 [8]
CC[C@H](C)[C@H]1NC(=O)[C@H]2CSSCC/C=C/[C@H](CC(=O)N[C@H](CCSC)C(=O)N2)OC(=O)C[C@@H]1O [THAILANDEPSIN A]	7.5 µM	> 50 µM	87 nM	> 50 µM	9.9 µM	> 50 µM	> 50 µM	39 µM
CCCC[C@H]1NC(=O)C[C@H]2/C=C/CCSSC[C@@H](NC1=O)C(=O)N[C@H]([C@@H](C)CC)[C@@H](O)CC(=O)O2 [THAILANDEPSIN B]	7.7 µM	22 µM	23 nM	> 50 µM	11 µM	–	30 µM	4.5 µM
C/C=C1\NC(=O)[C@H]2CSSCC/C=C/[C@H](CC(=O)N[C@H](C(C)C)C(=O)N2)OC(=O)[C@H](C(C)C)NC1=O [ROMIDEPSIN]	6.7 µM	> 50 µM	–	> 50 µM	–	> 50 µM	–	–

From ChEMBL document CHEMBL1833850, “Thailandepsins: bacterial products with potent histone deacetylase inhibitory activities and broad-spectrum antiproliferative activities” (J Nat Prod, 2011)
